Consider 13 compounds from article PMC11956017, “Design of Benzyl-triazolopyrimidine-Based NADPH Oxidase Inhibitors Leads to the Discovery of a Potent Dual Covalent NOX2/MAOB Inhibitor” (Journal of Medicinal Chemistry, 2025).

Assay [1] deals with dehydrogenase domain of csNOX5. As to the kind of experiment: NADPH depletion assay on csNOX5 dehydrogenase domain. As to conditions: 10 μM inhibitor; 1 μM purified protein, 250 μM NADPH. It is filed as biochemical, Cylindrospermum stagnale. As to the method:
A series of derivatives were synthesized and tested at 10 μM against the dehydrogenase domain of NOX5 from Cylindrospermum stagnale (C. stagnale, CsNOX5; Figure 2B).
The NADPH depletion assay for IC50 determinations was performed as described[10] with modifications for covalent inhibitors, which require longer incubation times. Briefly, the catalytic activity was measured by monitoring the absorbance at 340 nm with a Cary 100 UV–vis spectrophotometer (Varian). A 1 μM portion of purified protein was added in a final volume of 130 μL of 50 mM HEPES pH 7.5 and supplemented with 300 μM FAD. Inhibitors were added at varying concentrations and incubated for 1 h at 25 °C.

The target of another assay is T1, human NOX1 (Homo sapiens, UniProt Q9Y5S8).
T1 construct: expressed in transfected cells; host or cells: HEK293 F cells, transient transfection (pEG BacMam vector); isolated membranes; Cytosolic proteins made in E. coli
T1 sequence (Q9Y5S8 1-564): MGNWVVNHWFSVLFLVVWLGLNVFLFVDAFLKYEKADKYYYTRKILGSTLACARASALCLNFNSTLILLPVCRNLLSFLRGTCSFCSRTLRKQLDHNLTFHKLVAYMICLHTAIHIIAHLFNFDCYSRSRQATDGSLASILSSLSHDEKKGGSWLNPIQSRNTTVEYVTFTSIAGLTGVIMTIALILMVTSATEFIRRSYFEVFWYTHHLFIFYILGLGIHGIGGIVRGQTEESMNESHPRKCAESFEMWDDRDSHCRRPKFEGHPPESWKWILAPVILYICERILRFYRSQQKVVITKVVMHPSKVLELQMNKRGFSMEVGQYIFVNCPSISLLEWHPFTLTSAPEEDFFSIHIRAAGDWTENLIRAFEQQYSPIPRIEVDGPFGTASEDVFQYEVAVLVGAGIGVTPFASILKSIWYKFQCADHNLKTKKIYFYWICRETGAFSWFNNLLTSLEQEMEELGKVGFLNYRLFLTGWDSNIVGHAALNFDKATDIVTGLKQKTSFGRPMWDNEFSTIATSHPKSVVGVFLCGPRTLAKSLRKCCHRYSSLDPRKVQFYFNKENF
T1 sequence (P13498 1-195 partner): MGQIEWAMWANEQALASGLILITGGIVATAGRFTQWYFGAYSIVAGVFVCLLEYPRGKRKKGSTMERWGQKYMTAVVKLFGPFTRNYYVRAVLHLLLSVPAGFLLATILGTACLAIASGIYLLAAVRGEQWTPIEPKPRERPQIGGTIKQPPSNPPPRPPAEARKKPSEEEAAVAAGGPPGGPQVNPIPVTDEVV
As to the kind of experiment: Human NOX1 isolated membranes, Amplex Red/horseradish peroxidase coupled assay. It is filed as biochemical. As to conditions: membrane-embedded; 40 μM NADPH; read-out: IC50 on human NOXs, NOX1 (AMPLEX RED). The protocol:
(§1) Activity assays for IC50 determinations were performed as previously described[40],[42] with modifications for covalent inhibitors. […] The estimated final protein concentrations based on the heme’s absorbance (ε414 nm = 131,000 M^–1 cm^–1) were 10–20 nM. Compounds were incubated for 1 h at 25 °C at varying concentrations, and reactions were initiated with 40 μM NADPH. Fluorescence was measured using a ClarioStar plate reader (excitation 572 nm/emission 583 nm).

Another assay concerns the target T2, human NOX4 (Homo sapiens, UniProt Q9NPH5).
T2 construct: expressed in transfected cells; host or cells: HEK293 F cells, transient transfection (pTT22 and pYD7 vectors); isolated membranes
T2 sequence (Q9NPH5 1-578): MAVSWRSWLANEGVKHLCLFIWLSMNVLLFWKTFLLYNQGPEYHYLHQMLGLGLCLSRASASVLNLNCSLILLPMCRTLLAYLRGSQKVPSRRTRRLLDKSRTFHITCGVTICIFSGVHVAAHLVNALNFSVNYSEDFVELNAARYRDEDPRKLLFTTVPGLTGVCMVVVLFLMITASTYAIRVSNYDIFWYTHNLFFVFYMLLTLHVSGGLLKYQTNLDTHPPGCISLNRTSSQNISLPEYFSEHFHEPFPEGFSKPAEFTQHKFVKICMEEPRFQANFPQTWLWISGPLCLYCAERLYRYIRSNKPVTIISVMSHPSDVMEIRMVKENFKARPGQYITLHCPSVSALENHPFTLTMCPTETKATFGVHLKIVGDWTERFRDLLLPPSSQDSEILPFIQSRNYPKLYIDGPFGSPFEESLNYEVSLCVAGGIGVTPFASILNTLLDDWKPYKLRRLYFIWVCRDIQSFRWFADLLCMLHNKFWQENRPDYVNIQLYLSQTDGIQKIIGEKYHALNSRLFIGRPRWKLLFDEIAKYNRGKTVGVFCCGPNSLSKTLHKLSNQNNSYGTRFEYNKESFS
T2 sequence (P13498 1-195 partner): T1 sequence (P13498 1-195 partner)
In words: Human NOX4 isolated membranes, Amplex Red/horseradish peroxidase coupled assay. The assay is classed as biochemical. The settings on record: membrane-embedded; 40 μM NADPH; read-out: IC50 on human NOXs, NOX4 (AMPLEX RED). The protocol: as §1

A further assay has as its target T3, human NOX5 (Homo sapiens, UniProt Q96PH1).
T3 construct: expressed in transfected cells; host or cells: HEK293 F cells, transient transfection (pEG BacMam vector); isolated membranes
T3 sequence (Q96PH1 1-719 isoform Q96PH1-4): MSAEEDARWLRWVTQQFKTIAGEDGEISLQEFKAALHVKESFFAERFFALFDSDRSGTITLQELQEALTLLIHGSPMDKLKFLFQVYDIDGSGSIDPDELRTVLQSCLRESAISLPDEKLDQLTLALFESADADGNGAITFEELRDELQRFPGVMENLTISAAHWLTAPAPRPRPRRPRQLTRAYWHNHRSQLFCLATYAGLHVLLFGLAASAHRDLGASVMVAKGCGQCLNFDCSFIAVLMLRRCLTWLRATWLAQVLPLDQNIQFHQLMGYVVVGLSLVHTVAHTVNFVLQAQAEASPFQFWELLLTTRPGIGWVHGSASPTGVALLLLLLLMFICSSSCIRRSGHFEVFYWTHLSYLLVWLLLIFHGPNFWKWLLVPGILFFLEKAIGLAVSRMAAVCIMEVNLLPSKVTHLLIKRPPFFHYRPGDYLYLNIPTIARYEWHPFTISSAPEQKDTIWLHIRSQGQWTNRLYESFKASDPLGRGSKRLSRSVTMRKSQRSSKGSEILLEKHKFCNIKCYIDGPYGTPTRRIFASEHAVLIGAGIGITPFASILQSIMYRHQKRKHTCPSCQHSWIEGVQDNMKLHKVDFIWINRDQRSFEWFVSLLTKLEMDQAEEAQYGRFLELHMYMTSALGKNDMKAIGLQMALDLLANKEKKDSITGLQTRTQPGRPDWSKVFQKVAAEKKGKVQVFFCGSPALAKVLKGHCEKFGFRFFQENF
As to the kind of experiment: Human NOX5 isolated membranes, Amplex Red/horseradish peroxidase coupled assay. As to conditions: membrane-embedded; 40 μM NADPH; read-out: IC50 on human NOXs, NOX5 (AMPLEX RED). It is filed as biochemical. As to the method: as §1

Another assay has as its target NOX2 (Homo sapiens, UniProt P04839). As to the kind of experiment: Human NOX2 isolated membranes, MCLA assay. The assay is classed as biochemical. The arrangement: NOX2 was expressed as native protein in X-CGD PLB-985 cells transduced with the RD114 pseudotyped MFGS-NOX2 vector; expressed in transfected cells; host or cells: X-CGD PLB-985 cells transduced with MFGS-NOX2; isolated membranes; Cytosolic proteins made in E. coli. The settings on record: membrane-embedded; 240 μM NADPH; read-out: IC50 on human NOXs, NOX2 (MCLA). The protocol:
IC50 determinations were performed as described, with the same aforementioned modifications for covalent inhibition. Briefly, 20 μg of NOX2-p22^phox membranes was added to a reaction mix with a 65 mM sodium phosphate buffer (pH 7.0), 0.5 μM FAD, 130 μM LiDS, 160 nM p67^phox, p47^phox, Rac1 Q61L, and 1 μM MCLA or 200 μM bovine cytochrome c. The estimated final protein concentration based on the heme’s absorbance was 60 nM. Compounds were incubated for 1 h at 25 °C, at varying concentrations. The reaction started by adding 240 μM NADPH, and measurements were taken by using a GloMax plate reader (Promega; MCLA) or a Cary 100 UV–vis spectrophotometer (Varian; cytochrome c).

For orientation: IC50 means the concentration at which inhibition is half-maximal.

As to `CC(=O)N1CCN(c2ncnc3c2nnn3Cc2ccccc2)CC1` [Compound 7b, 1-(4-(3-Benzyl-3H-[1,2,3]triazolo[4,5-d]pyrimidin-7-yl)piperazin-1-yl)etan-1-one], in assay [1], the “% INHIBITION csNOX5 DEHYDROGENASE DOMAIN” value was 40.5 ± 14.8%.

With `C=CC(=O)N1CCN(c2ncnc3c2nnn3Cc2ccccc2)CC1` [Compound 7a, 1-(4-(3-Benzyl-3H-[1,2,3]triazolo[4,5-d]pyrimidin-7-yl)piperazin-1-yl)prop-2-en-1-one], the “% INHIBITION csNOX5 DEHYDROGENASE DOMAIN” value in assay [1] turned out to be 12.0 ± 3.0%.

With `c1ccc2oc(Sc3ncnc4c3nnn4Cc3ccc(CN4CCCCC4)cc3)nc2c1` [Compound 9d, 2-((3-(4-(Piperidin-1-ylmethyl)benzyl)-3H-[1,2,3]triazolo[4,5-d]pyrimidin-7-yl)thio)benzo[d]oxazole], the IC50 was over 100 µM at human NOX1, over 100 µM on human NOX4, 4.72 ± 3.7 µM on human NOX5 and 8.1 ± 0.2 µM on NOX2.

In the case of `c1ccc2oc(Sc3ncnc4c3nnn4Cc3ccc(CN4CCOCC4)cc3)nc2c1` [Compound 9e, 2-((3-(4-(Morpholinomethyl)benzyl)-3H-[1,2,3]triazolo[4,5-d]pyrimidin-7-yl)thio)benzo[d]oxazole], the IC50 at human NOX1 is over 100 µM; on human NOX4, over 100 µM; on human NOX5 it was 2.06 ± 0.96 µM; on NOX2, 1.9 ± 0.2 µM.

Turning to `FC1(F)CC2(CCN(Cc3ccc(Cn4nnc5c(Sc6nc7ccccc7o6)ncnc54)cc3)CC2)C1` [Compound 9f, 2-((3-(4-((2,2-Difluoro-7-azaspiro[3.5]nonan-7-yl)methyl)benzyl)-3H-[1,2,3]triazolo[4,5-d]pyrimidin-7-yl)thio)benzo[d]oxazole], the IC50 on human NOX1 is over 100 µM; on human NOX4, over 100 µM; on human NOX5, 46.6 ± 9.1 µM; on NOX2 it was 13.8 ± 2.8 µM.

With `CC(C)(C)OC(=O)N1CCN(c2ncnc3c2nnn3Cc2ccccc2)CC1` [Compound 5, tert-Butyl 4-(3-benzyl-3H-[1,2,3]triazolo[4,5-d]pyrimidin-7-yl)piperazine-1-carboxylate], the “% INHIBITION csNOX5 DEHYDROGENASE DOMAIN” value in assay [1] worked out at 16.9 ± 8.2%.

Consider `CN(Cc1ccccc1)Cc1ccc(Cn2nnc3c(Sc4nc5ccccc5o4)ncnc32)cc1` [Compound 9c, N-(4-((7-(Benzo[d]oxazol-2-ylthio)-3H-[1,2,3]triazolo[4,5-d]pyrimidin-3-yl)methyl)benzyl)-N-methyl-1-phenylmethanamine], for which the IC50 was over 100 µM on human NOX1, over 100 µM at human NOX4, 14.3 ± 5.9 µM at human NOX5 and 12.9 ± 2.2 µM at NOX2.

As for `CS(=O)(=O)Oc1ncnc2c1nnn2Cc1ccccc1` [Compound 2], in assay [1], the “% INHIBITION csNOX5 DEHYDROGENASE DOMAIN” value worked out at 15.1 ± 2.5%.

Regarding `C=CC(=O)Nc1ccc(Sc2ncnc3c2nnn3Cc2ccccc2)cc1` [Compound 7d, N-(4-((3-Benzyl-3H-[1,2,3]triazolo[4,5-d]pyrimidin-7-yl)thio)phenyl)acrylamide], the “% INHIBITION csNOX5 DEHYDROGENASE DOMAIN” value in assay [1] is 28.1 ± 2.8%.

Take `Cl.c1ccc(Cn2nnc3c(N4CCNCC4)ncnc32)cc1` [Compound 6, 3-Benzyl-7-(piperazin-1-yl)-3H-[1,2,3]triazolo[4,5-d]pyrimidine Hydrochloride]: the “% INHIBITION csNOX5 DEHYDROGENASE DOMAIN” value in assay [1] was 7.0 ± 3.2%.

For `Nc1ncnc2c1nnn2Cc1ccccc1` [Compound 4, 3-Benzyl-3H-[1,2,3]triazolo[4,5-d]pirimidin-7-amina], the “% INHIBITION csNOX5 DEHYDROGENASE DOMAIN” value in assay [1] came to 28.0 ± 9.2%.

As to `Oc1ncnc2c1nnn2Cc1ccccc1` [Compound 1, 3-benzyl-3H-[1,2,3]triazolo[4,5-d]pyrimidin-7-ol], the “% INHIBITION csNOX5 DEHYDROGENASE DOMAIN” value in assay [1] is reported as 0%.

On to `CCCN(C)Cc1ccc(Cn2nnc3c(Sc4nc5ccccc5o4)ncnc32)cc1` [Compound 9b, N-(4-((7-(Benzo[d]oxazol-2-ylthio)-3H-[1,2,3]triazolo[4,5-d]pyrimidin-3-yl)methyl)benzyl)-N-methylpropan-1-amine], for which the IC50 at human NOX1, on human NOX4, at human NOX5 and on NOX2 was over 100 µM throughout.
